For this experiment, the target named is PRMT5/MEP50 complex (Homo sapiens, UniProt O14744). The experiment is described as follows: Chemiluminescent Assay: A PRMT5 chemiluminescent assay was used to measure the […] activity of PRMT5. Biotinylated histone peptides were synthesized and attached to 384-well plates. Compound serial dilutions were performed and added to the assay plate. Histone H4 monomethyl R3 antibody was obtained from Abcam. A master mix for each well was prepared and human PRMT5/MEP50 (expressed in HEK293 cells) diluted in assay buffer to a concentration of 5 ng/μL. The reaction was incubated and slowly rotated for 60 minutes at the point of PRMT5/MEP50 addition. The supernatant from the wells was removed and blocking buffer was added to each well and rotated for 10 minutes. The primary antibody was diluted and added to every well for 60 minutes, before it was removed and the wells washed. The horse radish peroxidase (HRP)-coupled secondary antibody was diluted and added to each well with an incubation time of 30 minutes. The HRP chemiluminescent substrate was added to every well. The plate was read on a Flourstar Omega BMG Labtech instrument (Ortenberg, Germany) and the analysis of IC50 was performed using the Flourstar Omega BMG Labtech software. In kind it is biochemical.
Chain of PRMT5/MEP50 complex (O14744 whole entry): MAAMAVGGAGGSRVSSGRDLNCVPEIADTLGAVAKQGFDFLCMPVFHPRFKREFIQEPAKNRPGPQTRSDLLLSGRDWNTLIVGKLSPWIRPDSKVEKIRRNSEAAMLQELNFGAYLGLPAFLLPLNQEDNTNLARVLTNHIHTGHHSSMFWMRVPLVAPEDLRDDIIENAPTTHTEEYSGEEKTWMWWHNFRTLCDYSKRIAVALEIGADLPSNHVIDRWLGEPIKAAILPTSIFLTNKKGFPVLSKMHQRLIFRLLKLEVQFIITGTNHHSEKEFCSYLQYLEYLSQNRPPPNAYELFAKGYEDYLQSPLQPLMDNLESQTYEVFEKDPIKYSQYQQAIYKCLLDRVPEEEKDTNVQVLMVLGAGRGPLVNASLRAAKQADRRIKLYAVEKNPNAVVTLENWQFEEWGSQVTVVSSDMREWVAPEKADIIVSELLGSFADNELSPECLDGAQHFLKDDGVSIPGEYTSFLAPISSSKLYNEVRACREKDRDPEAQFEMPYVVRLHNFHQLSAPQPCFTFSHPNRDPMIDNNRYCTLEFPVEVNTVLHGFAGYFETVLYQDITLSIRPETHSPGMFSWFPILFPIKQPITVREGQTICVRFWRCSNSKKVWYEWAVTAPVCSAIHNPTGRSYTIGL
Chain of PRMT5/MEP50 complex (Q9BQA1 whole entry, further chain): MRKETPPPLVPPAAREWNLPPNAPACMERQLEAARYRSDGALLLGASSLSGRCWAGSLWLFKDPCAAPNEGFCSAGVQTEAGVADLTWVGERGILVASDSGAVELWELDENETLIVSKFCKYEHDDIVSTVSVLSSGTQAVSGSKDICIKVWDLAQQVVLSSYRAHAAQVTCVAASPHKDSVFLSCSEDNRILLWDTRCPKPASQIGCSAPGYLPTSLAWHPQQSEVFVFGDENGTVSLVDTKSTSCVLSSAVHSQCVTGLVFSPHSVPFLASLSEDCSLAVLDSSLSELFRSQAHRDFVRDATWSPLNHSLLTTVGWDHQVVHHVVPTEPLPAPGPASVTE

Molecules are shown by their SMILES. pIC50: −log10 of the molar value.

Four molecules from ChEMBL document CHEMBL5729023, “Tricyclic compounds for use in treatment of proliferative disorders” (2022) can be followed below.

The pIC50 is −log10 of the IC50, conventionally taken in molar units.

For `O=C(NCC(O)CN1CCc2[nH]c3ccccc3c2C1)c1ccc(C(=O)N2C3CCC2COC3)cc1` (centres undefined), the pIC50 is 5.76.
Under `Cn1c2c(c3ccccc31)CN(CC(O)CNC(=O)c1ccc(C(=O)N3C4CCC3COC4)cc1)CC2` (centres undefined) stands 5.48; under `CN1CCN(c2nc(NC3CCC3)cc(C(=O)NCC(O)CN3CCc4[nH]c5ccccc5c4C3)n2)CC1` (centres undefined), 6.28.
The figure for `O=C(NCC(O)CN1CCc2[nH]c3ccccc3c2C1)c1cc(NC2CCC2)ncn1` (centres undefined) is 5.77.
